Experimental data taken from ChEMBL document CHEMBL1139727, “A novel series of imidazo[1,2-a]pyridine derivatives as HIF-1alpha prolyl hydroxylase inhibitors” (Bioorg Med Chem Lett, 2006).

Biological target: Egl nine homolog 1 (Homo sapiens, UniProt Q9GZT9)
Experiment: Inhibition of human EGLN1

Egl nine homolog 1, sequence (Q9GZT9 whole entry): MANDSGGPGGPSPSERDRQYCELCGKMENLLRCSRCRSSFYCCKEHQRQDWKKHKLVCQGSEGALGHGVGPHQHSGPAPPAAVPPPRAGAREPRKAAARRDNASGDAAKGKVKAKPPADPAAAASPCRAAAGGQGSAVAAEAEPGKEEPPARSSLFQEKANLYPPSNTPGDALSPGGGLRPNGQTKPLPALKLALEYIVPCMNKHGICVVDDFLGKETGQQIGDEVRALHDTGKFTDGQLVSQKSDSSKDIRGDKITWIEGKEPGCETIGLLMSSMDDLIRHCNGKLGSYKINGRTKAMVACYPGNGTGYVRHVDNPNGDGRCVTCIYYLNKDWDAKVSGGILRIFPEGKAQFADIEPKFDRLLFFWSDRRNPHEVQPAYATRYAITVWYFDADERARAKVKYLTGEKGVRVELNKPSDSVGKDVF

Cc1cccc(-c2ccc3nc(C(=O)NCC(=O)O)cn3c2)c1
IC50: > 100 µM
